# Results reported in patent publication US12310364B2, “Safened compositions comprising pyridine carboxylate herbicides and cloquintocet” (Corteva Agriscience LLC, priority 2018, dated 2025).
# Experiments:
# Format in all cases: in vivo
# [1] = test system: Triticum aestivum (spring wheat), TRZAS; assay: Greenhouse postemergence safening trial, visual injury on spring wheat
# Protocol: (§1) Greenhouse Trial Methodology-Evaluation of Postemergence Herbicidal […] in Crops […] When required to ensure good germination and healthy plants, a fungicide treatment and/or other chemical or physical treatment was applied. The plants were grown for 7-36 days (d) in a greenhouse with an approximate 14-hour (h) photoperiod which was maintained at about 23° C. during the day and 22° C. during the night. Nutrients and water were added on a regular basis and supplemental lighting was provided with overhead metal halide 1000-Watt lamps as necessary. The plants were employed for testing when they reached the second or third true leaf stage. Emulsifiable concentrates of each of each pyridine carboxylate herbicide (Compound A or Compound B) were prepared at 100 grams acid equivalent per liter (g ae/L). […] The concentrated stock solutions were further diluted with an aqueous mixture of 1.25% […] or MSO® Concentrate with LECI-TECH® to obtain stock solutions at reduced application rates for each herbicide. Spray solutions of the herbicide combinations (Compound A or Compound B plus safener) were prepared by adding weighed amounts or aliquots of the safener to the stock solutions of Compound A or Compound B to form 12-mL spray solutions in two-way combinations. […] Control plants were sprayed in the same manner with the solvent blank. All herbicide (component a) application rates are given as “g ae/ha” and all safener (component b) application rates are given as “g ai/ha.” The treated plants and control plants were placed in a greenhouse as described above and watered by sub-irrigation to prevent wash-off of the test compounds.
# [2] = test system: Triticum aestivum (durum wheat), TRZDU; assay: Greenhouse postemergence safening trial, visual injury on durum wheat
# Protocol: as §1
# [3] = test system: Avena sativa (common oat), AVESA; assay: Greenhouse postemergence safening trial, visual injury on common oat
# Protocol: as §1
# [4] = test system: Salsola kali (Russian thistle), SASKR; assay: Greenhouse postemergence trial, visual injury on Russian thistle
# Protocol: as §1
# [5] = test system: Hordeum vulgare (winter barley), HORVW; assay: Greenhouse postemergence safening trial, visual injury on winter barley
# Protocol: as §1
# [6] = test system: Hordeum vulgare (spring barley), HORVS; assay: Greenhouse postemergence safening trial, visual injury on spring barley
# Protocol: as §1
# [7] = test system: Matricaria chamomilla (wild chamomile), MATCH; assay: Greenhouse postemergence trial, visual injury on wild chamomile
# Protocol: as §1
# [8] = test system: Triticum aestivum (winter wheat), TRZAW; assay: Greenhouse postemergence safening trial, visual injury on winter wheat
# Protocol: as §1
# [9] = test system: Brassica napus (winter rape), BRSNW; assay: Greenhouse postemergence trial, visual injury on winter rape
# Protocol: as §1
# [10] = test system: Fagopyrum esculentum (common buckwheat), FAGES; assay: Greenhouse postemergence trial, visual injury on common buckwheat; conditions: herbicide alone 20 g/ha
# Excerpt: (§2) Greenhouse Trial Methodology—Evaluation of Postemergence Herbicidal Safening in Crops
# (§3) Seeds of the desired test plant species were planted in a 90:10% v/v (volume/volume) mixture of PRO-MIX® BX (Premier Tech Horticulture, Quakertown, PA, USA) and PROFILE® GREENS GRADE™ (Profile Products LLC, Buffalo Grove, IL, USA) planting mixture, which typically has a pH of 5.2 to 6.2 and an organic matter content of at least 50 percent, in plastic pots with a surface area of 103.2 square centimeters (cm^2). When required to ensure good germination and healthy plants, a fungicide treatment and/or other chemical or physical treatment was applied. The plants were grown for 7-36 days (d) in a greenhouse with an approximate 14-hour (h) photoperiod which was maintained at about 23° C. during the day and 22° C. during the night. Nutrients and water were added on a regular basis and supplemental lighting was provided with overhead metal halide 1000-Watt lamps as necessary. The plants were employed for testing when they reached the second or third true leaf stage.
# (§4) Emulsifiable concentrates of each of each pyridine carboxylate herbicide (Compound A or Compound B) were prepared at 100 grams acid equivalent per liter (g ae/L). An aliquot of each emulsifiable concentrate was placed in a 25 mL glass vial and diluted with an aqueous mixture of 1.25% (v/v) ACTIROB® B esterified rapeseed oil (Bayer Crop Science, Research Triangle Park, NC, USA) or MSO® Concentrate with LECI-TECH® methylated soybean oil (Loveland Products, Loveland, CO, USA) to obtain concentrated stock solutions at the highest application rate for each herbicide, based upon a 12 milliliter (mL) application volume at a rate of 187 liters per hectare (L/ha). The concentrated stock solutions were further diluted with an aqueous mixture of 1.25% v/v ACTIROB® B or MSO® Concentrate with LECI-TECH® to obtain stock solutions at reduced application rates for each herbicide. Spray solutions of the herbicide combinations (Compound A or Compound B plus safener) were prepared by adding weighed amounts or aliquots of the safener to the stock solutions of Compound A or Compound B to form 12-mL spray solutions in two-way combinations.
# (§5) The spray solutions were applied to the plant material with an overhead Mandel track sprayer equipped with 8002E nozzles calibrated to deliver 187 L/ha over an application area of 0.503 square meters (m^2) at a spray height of 18 inches (43 centimeters (cm)) above the average plant canopy. Control plants were sprayed in the same manner with the solvent blank. All herbicide (component a) application rates are given as “g ae/ha” and all safener (component b) application rates are given as “g ai/ha.”
# (§6) The treated plants and control plants were placed in a greenhouse as described above and watered by sub-irrigation to prevent wash-off of the test compounds. After 20-22 d, the condition of the test plants as compared with that of the control plants was determined visually and scored on a scale of 0 to 100 percent where 0 corresponds to no injury and 100 corresponds to complete kill.
# [11] = test system: Sinapis arvensis (wild mustard), SINAR; assay: Greenhouse postemergence trial, visual injury on wild mustard; conditions: herbicide alone 20 g/ha
# Excerpt: as §2, §3, §4, §5, §6
# [12] = test system: Polygonum convulvus (wild buckwheat), POLCO; assay: Greenhouse postemergence trial, visual injury on wild buckwheat; conditions: herbicide alone 20 g/ha
# Excerpt: as §2, §3, §4, §5, §6
SMILES,"% visual injury, Ob ([1]; safener alone 10 g/ha) [%]","% visual injury, Ob ([1]; safener alone 20 g/ha) [%]","% visual injury, Ob ([1]; safener alone 40 g/ha) [%]","% visual injury, Ob ([4]; safener alone 10 g/ha) [%]","% visual injury, Ob ([4]; safener alone 20 g/ha) [%]","% visual injury, Ob ([4]; safener alone 40 g/ha) [%]","% visual injury, Ob ([6]; safener alone 10 g/ha) [%]","% visual injury, Ob ([6]; safener alone 20 g/ha) [%]","% visual injury, Ob ([6]; safener alone 40 g/ha) [%]","% visual injury, Ob ([7]; safener alone 10 g/ha) [%]","% visual injury, Ob ([7]; safener alone 20 g/ha) [%]","% visual injury, Ob ([7]; safener alone 40 g/ha) [%]","% visual injury, Ob ([9]; safener alone 10 g/ha) [%]","% visual injury, Ob ([9]; safener alone 20 g/ha) [%]","% visual injury, Ob ([9]; safener alone 40 g/ha) [%]",also measured
"CCN(CC)CC.O=C(O)COc1ccc(Cl)c2cccnc12 [CQC-TEA, cloquintocet-triethylamine salt]",0,0,0,0,0,0,0,0,0,0,0,0,0,0,0,"% visual injury, Ob ([2]; safener alone 40 g/ha): 0%; % visual injury, Ob ([3]; safener alone 40 g/ha): 0%; % visual injury Δ ([5]; safener alone 40 g/ha): 0%; % visual injury, Ob ([5]; safener alone 40 g/ha): 0%; % visual injury, Ob ([8]; safener alone 40 g/ha): 0%"
"CC(O)CN(CC(C)O)CC(C)O.O=C(O)COc1ccc(Cl)c2cccnc12 [CQC-TIPA, cloquintocet-triisopropanolamine salt]",0,0,0,0,0,0,0,0,0,0,0,0,0,0,0,–
"C#CCOC(=O)c1nc(-c2ccc3cc[nH]c3c2F)c(F)c(N)c1Cl [Compound B, propargyl 4-amino-3-chloro-5-fluoro-6-(7-fluoro-1H-indol-6-yl)pyridine-2-carboxylate]",–,–,–,–,–,–,–,–,–,–,–,–,–,–,–,"% visual injury, Ob ([1]; herbicide alone 20 g/ha): 28%; % visual injury, Ob ([1]; herbicide alone 40 g/ha): 48%; % visual injury, Ob ([2]; herbicide alone 40 g/ha): 40%; % visual injury, Ob ([3]; herbicide alone 40 g/ha): 0%; % visual injury, Ob ([4]; herbicide alone 20 g/ha): 70%; % visual injury Δ ([5]; herbicide alone 40 g/ha): 0%; % visual injury, Ob ([5]; herbicide alone 40 g/ha): 38%; % visual injury, Ob ([6]; herbicide alone 20 g/ha): 30%; % visual injury, Ob ([6]; herbicide alone 40 g/ha): 25%; % visual injury, Ob ([8]; herbicide alone 40 g/ha): 50%; % visual injury, Ob [10]: 78%; % visual injury, Ob [11]: 80%; % visual injury, Ob [12]: 100%; % visual injury, Ob ([9]; herbicide alone 20 g/ha): 100%"
